# Measurements reported in patent US10295530B2, “Functional assay for cancer recurrence and malignant potential” (THE BRIGHAM AND WOMEN'S HOSPITAL, INC., priority 2012, dated 2019).
# What was measured:
# GFP+ responder cells = assay: Co-culture of GFP+ responder cells with BMCs from aspirin or vehicle treated mice, CD24 by flow cytometry; format: cell-based, human; settings: BMCs from aspirin treated LBC-bearing mice; same with vehicle
# Method: FIG. 35D. Flow cytometric analysis of CD24 expression on GFP+ responder cells co-cultured with indicated BMCs.
# BMCs were harvested and tested for functional activity as previously described (McAllister et al., 2008). In vitro instigation assays were conducted by co-culturing 1×10^4 GFP-positive responder tumor cells with 1×10^6 BMCs harvested from mice bearing […], TNBC or LBC Instigators. Co-cultured cells were maintained for 4 days in BMDC medium (DMEM, 5% FBS, 5% horse serum, 10^−6 M hydrocortisone), adding fresh medium on day 2.
# In order to understand whether BMCs from LBC tumor bearing mice directly mediated tumor cell surface enrichment of CD24, adherent GFP-positive (GFP+) responding tumor cells were cultured with BMCs prepared from various cohorts of mice and analyzed tumor cell expression of CD24 after 4 days by flow cytometry.
# [1] = system: instigating LBC tumor / host platelets and bone marrow; assay: Aspirin treatment in LBC-mediated systemic instigation: instigating LBC tumor, platelet counts, bone marrow VEGFR2+ cells; format: in vivo, mice; settings: aspirin 100 mg/kg i.p. once per week vs vehicle
# Method: (§1) FIG. 35A. Experimental scheme to test effects of aspirin on LBC-mediated systemic instigation. All mice were injected with responders and LBC instigating tumors and treated with either 100 mg/kg aspirin or vehicle control; n=10 (5 mice per cohort for 2 independent experiments).
# FIG. 35C. Numbers of VEGFR2+ cells in the bone marrow of experimental mice relative to those of cancer-free mice.
# (§2) 450 mg Aspirin (Sigma, A2093-100G) was dissolved in 11 ml DMSO to make a 41 mg/ml concentrated stock solution. 30 min before injection, 1.6 ml of stock solution was diluted in 11.6 ml of PBS to make a 5 mg/ml injection solution.
# (§3) Vehicle control was made with 1.6 ml DMSO diluted in 11.6 ml PBS. Mice were injected i.p. with aspirin at 100 mg/kg, once per week. A similar volume:weight ratio of vehicle was administered to control animals.
# In order to explore therapeutic potential and identify whether platelets were necessary for delivering the pro-tumorigenic instigating stimulus in the LBC macroenvironment, we treated mice with aspirin, which inhibits platelet activity (28). Mice were injected with LBC instigators that were permitted to grow for 4 weeks prior to initiation of weekly treatments of either aspirin or vehicle control; responders were then injected into these mice two days following the first aspirin treatment (FIG. 35A). […]
# [2] = system: responding tumors (HMLER-HR) opposite instigating LBC; assay: Aspirin treatment in LBC-mediated systemic instigation: responding tumors; format: in vivo, mice; settings: aspirin 100 mg/kg i.p. once per week
# Method: as §1
# All experiments were performed in accordance with regulations of the Children's Hospital Boston Institutional Animal Care and Use Committee (protocol 09-12-1566). Unless otherwise indicated, tumor cells were suspended in 20% […] (BD Biosciences) and injected subcutaneously into nonirradiated mice. Tumors were measured on the flanks of live mice using calipers; volume was calculated as 0.5*length*(width^2).
# as §2, §3
# In order to explore therapeutic potential and identify whether platelets were necessary for delivering the pro-tumorigenic instigating stimulus in the LBC macroenvironment, we treated mice with aspirin, which inhibits platelet activity (28). Mice were injected with LBC instigators that were permitted to grow for 4 weeks prior to initiation of weekly treatments of either aspirin or vehicle control; responders were then injected into these mice two days following the first aspirin treatment (FIG. 35A). While responding tumors formed in 90% of the mice treated with vehicle control, only 20% of the mice treated with aspirin developed responding tumors (FIG. 35B).
# [3] = patients treated with erlotinib (Numico et al., 2011); cited from earlier work
# HMLER-HR responder cells = HMLER-HR responder cells in depleted medium (D.M.) plus EGF and/or insulin, 4 days: flow cytometry and qPCR; format: cell-based, human; settings: for CD44 expression / CD44/CD24 expression patterns (flow cytometry) / Oct4 expression (qPCR) / Zeb1 expression (qPCR) / c-Myc expression (qPCR): added to cells kept in D.M. for 4 days, relative to C.M.
# Text: FIG. 23D. Flow cytometric density plots representing CD44/CD24 profiles of responding tumor cells after 4 days in depleted medium, D.M. (medium devoid of EGF and insulin), or D.M.+indicated supplements. Graph represents average responding tumor cell CD441CD24 profiles under indicated conditions relative to that of C.M (samples run in triplicate).
# FIG. 23E. Expression levels of indicated malignancy profile genes in responder tumor cells after 4 days in indicated culture conditions relative to those maintained in C.M. Data represent average of three independent experiments, where each sample was run in triplicate.
# FIG. 26E. Expression levels of c-myc in HMLER-HR responding tumor cells after 4 days in response to indicated doses of EGF. Data are represented relative to cells that had been maintained in depleted medium (D.M.; medium devoid of EGF and insulin). Data are expressed as mean±SEM; samples tested in triplicate.
# HMLER-HR cells were maintained in DMEM-F12 (1:1) medium, supplemented with 5% calf serum, 10 ng/ml human recombinant EGF (Sigma E9644), 10 μg/ml insulin (Sigma 19278), 1 μg/ml hydrocortisone (Sigma 110888) and 1% penicillin-streptomycin. BPLER cells were maintained in WIT Medium (STEMGENT), and MCF7-Ras cells in DMEM media (Thermo Scientific) supplemented with 10% heat inactivated FBS (GIBCO), and 1% penicillin-streptomycin. BT549 cells were maintained in RPMI medium supplemented with 10% FBS.
# RNA was extracted from cells or snap-frozen tissues using Trizol reagent following manufacturer's instructions (INVITROGEN). RNA was retrotranscribed with ProtoScript AMV First Strand cDNA Synthesis Kit (New England BioLabs). PCR amplification was performed on a ABI Prism 7900 sequence detector using SYBR-Green (Applied Biosystems). Analysis was done using delta-delta Ct method, normalizing first to GAPDH.
# Whether EGFR and IGF1R signaling were necessary and/or sufficient for modulating responding tumor malignancy remained to be investigated. To do so, the effects of either depleting EGF and/or insulin from HMLER-HR responder cells that had been cultured in complete medium (C.M.) or adding EGF and/or insulin to cells that had been cultured in depleted medium (D.M., medium depleted of both EGF and insulin) were examined. For these studies, cells were treated under various conditions for 4 days, then assessed differentiation status by flow cytometry, expression of malignancy factors (e.g. Oct-4, Zeb1, c-myc) by qPCR, and tumor-forming capacity by soft agar colony formation.
Molecule,CD44 expression / CD44/CD24 expression patterns (flow cytometry) (HMLER-HR responder cells),Oct4 expression (qPCR) (HMLER-HR responder cells),Zeb1 expression (qPCR) (HMLER-HR responder cells),c-Myc expression (qPCR) (HMLER-HR responder cells),also measured
"CC(=O)Oc1ccccc1C(=O)O [aspirin, Aspirin]",–,–,–,–,"increase in tumor cell CD24 expression above control BMCs from tumor-free mice (GFP+ responder cells): ~90%; instigating LBC tumor growth [1]: did not significantly affect; incorporation of VEGFR2-positive cells into responding tumor sites ([2]; LBC instigating environment): completely inhibited; p-STAT3 in responding tumor site tissues ([2]; LBC instigating environment): negative; mice that developed responding tumors (incidence) ([2]; LBC instigators, vehicle control 90%): 20%"
C#Cc1cccc(Nc2ncnc3cc(OCCOC)c(OCCOC)cc23)c1 [erlotinib],–,–,–,–,adverse effect reported for patients [3]: skin rash
EGF: human recombinant EGF (Sigma E9644),sufficient to restore,unaffected,restored,restored,"c-myc upregulation in response to doses of EGF (HMLER-HR responder cells; HMLER-HR, 4 days, relative to D.M.): dose-dependent"
"insulin: insulin (Sigma 19278), medium supplement",not sufficient to restore,restored,remained significantly lower than the controls,remained significantly lower than the controls,–
